Data set [1] has as its system Topoisomerase I. As to conditions: purified from human colon carcinoma cells; cited from earlier work.
A further data set relates to human patients. The note with it: human, in vivo; cited from earlier work.
The conditions of data set [2]: animals; cited from earlier work.
Data set [3] concerns advanced gastrointestinal cancer. As to conditions: in vivo; cited from earlier work.
In another data set the test system is L1210 cells. As to conditions: cited from earlier work.
For data set [4] the following is noted: greater than carboxylate form; cited from earlier work.
A further data set relates to topoisomerase II. As to conditions: cited from earlier work.
Data set [5] has as its system human patients with cancer. As to conditions: Phase I and Phase II human trials; cited from earlier work.
A further data set relates to mice. The note with it: more toxic than SCPT; cited from earlier work.
For data set [6] the following is noted: lactone form, pH of 2 to 6; cited from earlier work.
A short description of data set [7]: Solubility of camptothecin in various solvents. In kind it is physicochemical. As to conditions: for solubility: read-out: Solubility, Concentration.
Another data set deals with DNA strand breaks. The note with it: cited from earlier work.
For data set [8], the system named is topoisomerase I-DNA cleavable complex. The note with it: cited from earlier work.
Data set [9] has as its system Topoisomerase I. The note with it: purified from calf thymus; cited from earlier work.

The structures appear in SMILES notation. Values after ≈ are worked out from the molar mass of the structure shown. Like-named read-outs stand apart in the source and are kept apart here.

Regarding `CC[C@@]1(O)C(=O)OCc2c1cc1n(c2=O)Cc2cc3ccccc3nc2-1` [Camptothecin, camptothecin], the “Inhibition of topoisomerase I” value in the data set with Topoisomerase I [1] and with Topoisomerase I [9] was “inhibited” each time. Also, the Renal excretion result in the data set with human patients is “excreted unchanged by the kidneys”. Moreover, in data set [2], the Transport into bile result is on record as “extremely active transport of camptothecin into bile”. Also, the “Clinical value in gastrointestinal cancer (conclusion)” value in data set [3] is “a drug of protean and unpredictable toxicity that has no clinical value in the management of gastrointestinal cancer”. Also, the “Protein-free DNA breaks” value in the data set with L1210 cells is recorded as “an increase in unexplained protein-free breaks”. Also, the “Anti-tumor activity of lactone relative to carboxylate form” value in [4] is listed as “greater than 10 fold”. Also, the “Effect on topoisomerase II” value with topoisomerase II was “no effect on topoisomerase II”. Further, in [5], the “Toxicity in early trials” value is “unpredictable myelosuppression and hemorrhagic cystitis”. The “Toxicity of lactone form relative to SCPT” value in the data set with mice is 10 fold. The Water solubility entry in data set [6] is given as “less than 5 micrograms in one milliliter o”. Also, in data set [7] (N-Methyl-2-pyrrolidinone (NMP)), the “Solubility, Concentration” value is 15000 to 20000 µg/mL. Besides, the solubility in data set [7] (benzyl alcohol, organic solvent or mixture, Benzyl alcohol) is 1670 µg/mL (≈ 4810 µM); in data set [7] (dimethylacetamide, organic solvent or mixture, Dimethylacetamide), 5000 µg/mL (≈ 14400 µM); in [7] (dimethylisosorbide, organic solvent or mixture, Dimethylisosorbide), 928 µg/mL (≈ 2660 µM); in [7] (ethanol, organic solvent or mixture, Ethanol) it was 51 µg/mL (≈ 146 µM); in data set [7] (milli-q water), 0.2 µg/mL (≈ 0.574 µM); in [7] (n-methyl-2-pyrrolidinone (nmp), organic solvent or mixture, N-Methyl-2-pyrrolidinone (NMP)), more than 15000 µg/mL. Further, the solubility in data set [7] (peg 300, organic solvent or mixture, PEG 300) was determined as 706 µg/mL (≈ 2030 µM); in data set [7] (propylene glycol, organic solvent or mixture, Propylene glycol) it was 281 µg/mL (≈ 807 µM). Also, the “Protein-associated DNA single-strand breaks” value with DNA strand breaks is on record as “induces protein-associated DNA single-strand breaks”. Besides, in the data set on DNA strand breaks (in vitro cells), the “Protein linkage of DNA strand breaks” value is listed as “Virtually all of the DNA strand breaks observed in vitro cells treated with camptothecin are protein linked”. The “Stabilization of the topoisomerase I cleavable complex, reversibility” value in data set [8] is on record as “readily reversible”.

The record behind these values is patent US5726181A, “Formulations and compositions of poorly water soluble camptothecin derivatives” (BioNumerik Pharmaceuticals, Inc., priority 1995, dated 1998).
